Test results: PubChem BioAssay (NCI)
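Exposure lasted 48 hours, with cells grown in 96-well plates and compounds tested at five concentrations. GI50 is the concentration that inhibits growth by half. TGI: concentration producing complete growth inhibition.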

Legend:
Assay in all cases: inhibition of tumour cell growth, NCI panel, 48 h
A549 NSCLC = tested on: A549 NSCLC
CAKI-1 renal = tested on: CAKI-1 renal
COLO 205 colon = tested on: COLO 205 colon
HCT-15 colon = tested on: HCT-15 colon
HL-60(TB) leukemia = tested on: HL-60(TB) leukemia
LOX IMVI melanoma = tested on: LOX IMVI melanoma
M14 melanoma = tested on: M14 melanoma
NCI-H226 lung = tested on: NCI-H226 lung
SK-MEL-28 melanoma = tested on: SK-MEL-28 melanoma
BT-549 breast = tested on: BT-549 breast

Structure (SMILES)	GI50 (A549 NSCLC) [µM]	TGI (A549 NSCLC) [µM]	GI50 (CAKI-1 renal) [µM]	TGI (CAKI-1 renal) [µM]	GI50 (COLO 205 colon) [µM]	TGI (COLO 205 colon) [µM]	GI50 (HCT-15 colon) [µM]	TGI (HCT-15 colon) [µM]	GI50 (HL-60(TB) leukemia) [µM]	TGI (HL-60(TB) leukemia) [µM]	GI50 (LOX IMVI melanoma) [µM]	TGI (LOX IMVI melanoma) [µM]	GI50 (M14 melanoma) [µM]	TGI (M14 melanoma) [µM]	GI50 (NCI-H226 lung) [µM]	TGI (NCI-H226 lung) [µM]	GI50 (SK-MEL-28 melanoma) [µM]	TGI (SK-MEL-28 melanoma) [µM]	TGI (BT-549 breast) [µM]	GI50 (BT-549 breast) [µM]
CN1CCN(CCCn2c(=O)c3sc4ncccc4c3n3nnc(-c4ccccc4)c23)CC1	6.81	13.8	6.16	13	7.35	14.6	6.19	13.2	0.795	1.73	5.33	11.5	2.13	7.38	7.4	15.3	8.73	15.8		
C[Si](C)(C)C1(Sc2ccccc2)SCCCS1		> 100		> 100		> 100		> 100		33.3		> 100		> 100				> 100		
Cc1ccccc1S(=O)(=O)OC1NS(=O)(=O)c2ccccc21 (centres undefined)		> 100		> 100		> 100		> 100				> 100		> 100				> 100	> 100	
COc1ccc(S(=O)(=O)NNS(C)(=O)=O)cc1		> 100		> 100		> 100				> 100		> 100		> 100		> 100				
CCCCCCN(CCCCCC)C(=O)Cc1c2n(c3ccccc13)Cc1ccccc1-2		> 100		> 100		> 100		> 100		46.4		> 100		> 100		> 100		> 100		
Cc1ccc(NC(=O)c2cc3cc(N=Nc4ccccc4C(=O)O)ccc3oc2=O)cc1		> 100				> 100		> 100		69.4		> 100		> 100		> 100		> 100		
CCOC(=O)CC(=O)ON(C)C(C)=O		> 100		> 100		> 100		> 100		> 100		> 100		> 100		> 100				
c1ccc(COc2cccc3ccc[n+](Cc4ccccc4)c23)cc1		> 100				23.9		> 100		5.75				60.2		25.5		25.4		
C/C(=N\NC(=S)NC(CCC(=O)O)C(=O)O)c1ccccn1 (centres undefined)		> 100				> 100		> 100		> 100		> 100		> 100		> 100		> 100		
CN(C)c1ccc(/C=C(\NC(=O)c2ccccc2)c2nc3ncncc3[nH]2)cc1		> 100		> 100		> 100		> 100		> 100				> 100				> 100		
CC(C)=Cc1cc(C(=O)Nc2ccc(Cl)c(Cl)c2)nc(N)n1		> 100		> 100				> 100		> 100		> 100		> 100		> 100		> 100		
C#CC1(O)CCC2C3CCc4cc(Oc5nc(F)nc(-c6c7ccccc7c7sc8ccccc8n67)n5)ccc4C3CC[C@@]21C (some centres undefined)		> 100		> 100		> 100		> 100		> 100				98.3		> 100		> 100		
C=C(Br)C(C)(Br)CCC(Br)C(C)(C)Cl (centres undefined)		> 100				33.8		32.7		16.2				39		81.3		33.3	52.6	
CCN(CC)/C(SCc1ccccc1)=C(\C(Cl)=C(Cl)Cl)[N+](=O)[O-]		38.1		73.5		38.9		71.7		38.9		32.7		29.3		39.1		33.9		
CC1(C)C2CCC(=O)C1CC2 (centres undefined)		> 100		> 100		> 100		> 100		> 100		> 100		> 100		> 100		> 100		
COc1ccc([C@H]2[C@@H](F)C(=O)N2c2cc(OC)c(OC)c(OC)c2)cc1F	0.394	> 100			0.156	0.503	0.0664	> 100	0.0805	0.399	0.0904	> 100			22.2	> 100	15.8	> 100	33.8	0.0498
CCOC(=O)NC(=O)c1cn(CCCO)c(=O)[nH]c1=O		> 100		> 100		> 100		> 100				> 100		> 100		> 100		> 100		
Cc1ccc(S(=O)(=O)Nc2ccccc2C(=O)c2ccc(C)c(C)c2)cc1		> 100		> 100		> 100		> 100				> 100		> 100		> 100		> 100	> 100	
ClCc1cccc(Cn2cnc3ncnc(Cl)c32)c1	17.2	39.6	2.12	4.04	2.61	> 100	1.96	4.34			3.11	14	3.05	14.6	3.19	8.67	1.81	3.52	28.6	13.1
COc1ccc(-c2nnc(COc3ccc(NC(=O)Nc4cc(C(F)(F)F)cc(C(F)(F)F)c4)cc3F)o2)cc1	1.58	7.15			1.9	3.3	2.01	6.06	2.34	6.02	1.95	4.42	2.97	11.4	2.63	9.69	2.4	6.85	6.05	2.54

Structure (SMILES)	GI50 (A549 NSCLC) [µM]	TGI (A549 NSCLC) [µM]	GI50 (CAKI-1 renal) [µM]	TGI (CAKI-1 renal) [µM]	GI50 (COLO 205 colon) [µM]	TGI (COLO 205 colon) [µM]	GI50 (HCT-15 colon) [µM]	TGI (HCT-15 colon) [µM]	GI50 (HL-60(TB) leukemia) [µM]	TGI (HL-60(TB) leukemia) [µM]	GI50 (LOX IMVI melanoma) [µM]	TGI (LOX IMVI melanoma) [µM]	GI50 (M14 melanoma) [µM]	TGI (M14 melanoma) [µM]	GI50 (NCI-H226 lung) [µM]	TGI (NCI-H226 lung) [µM]	GI50 (SK-MEL-28 melanoma) [µM]	TGI (SK-MEL-28 melanoma) [µM]	TGI (BT-549 breast) [µM]	GI50 (BT-549 breast) [µM]
[Cl-].[La+3].[O-]/N=C(\c1ccccc1)c1ccccn1.[O-]/N=C(\c1ccccc1)c1ccccn1.[O-]/N=C(\c1ccccc1)c1ccccn1	41.8	> 100	48.4	> 91.2	46.8	> 100	30.8	> 100	33.5	> 100	22.9	> 100	20.2	41.4	21.6	51.2	38.5	> 100		
O=C(/C=C\c1ccc(Cl)c(Cl)c1)c1ccc(Cl)cc1Cl		60.7		> 100			58	> 100	3.46	23.3	2.05	18.2		52.4	6.39	21.2				
COc1cc2c3c(n(C)c(=O)c2cc1OC)-c1cc2c(cc1/C3=C\CCCN)OCO2	4.3	> 100	1.99	8.62	7.67	> 100	3.18	15.5			1.06	2.52	12.4	> 100	9.33	31.6	18.8	> 100	38.9	15.5
CCN1CCN(c2nc(C)cc(N(CCNc3ccnc4cc(Cl)ccc34)Cc3ccc4c(c3)OCO4)n2)CC1	2.4	8.19			1.63	3.27	1.46	3.26	2.1	4.22	1.77	3.35	1.84	3.44	15	33.6	1.79	3.42	3.73	1.74
Clc1ccc(C(c2ccc(Cl)cc2)c2ccccn2)cc1		38.6		56.8				38		55.8		30.4		38		31.9				
O=C1NCC2(CCN(CCCC3(c4ccc(F)cc4)OCCO3)CC2)N1c1ccccc1		> 100		> 100		> 100		> 100		> 100		> 100		> 100		> 100		> 100		
COC(=O)C1=C(C)NC(C)=C(C(=O)OCCCN2CCC(c3ccccc3)(c3ccccc3)CC2)C1c1cccc([N+](=O)[O-])c1 (centres undefined)		3.41		11.8		3.08		3.19		75		3.2		3.13		18.2		3.39		
CC(=O)/C(=C\c1cccc([N+](=O)[O-])c1)C(=O)Nc1ccccc1C		> 100		> 100				> 100		57.9		> 100		> 100		> 100		> 100		
Cc1cc(-c2ccc3nc(C4CCOCC4)n(CCOC(F)(F)F)c3c2)cn(C)c1=O	0.48					2.97		4.23	0.0247	0.197		1.06				8.47			> 80.4	3.99
CCCC(=O)OC1CC(n2cc(F)c(=O)[nH]c2=O)OC1COP(=O)(OCC(Cl)(Cl)Cl)OCC(Cl)(Cl)Cl (centres undefined)		> 94.6		> 31.6		59		> 100		40.4		> 69.6		> 31.6		> 100		> 62.4		
Cn1c2ccccc2c2cc(-c3ccccc3)c3c(c21)C(=O)c1ccccc1C3=O		79.1		> 100		94.3				35.9				33.4		84		37.5		
CCc1cc(Cc2cc(CC)c(NC(=O)C(=O)Cc3ccccn3)c(CC)c2Cl)c(Cl)c(CC)c1NC(=O)C(=O)Cc1ccccn1		> 100		> 100		> 100		> 100		> 100		> 100		> 100		> 100		> 100		
OCC#Cc1ccccc1C#Cc1ccccc1	16.5	45	12.2	25.5	19.6	37.6	11.5	24.8			13.2	27.6	10.6	22.5	15	29.4	19.2	40.4	27.8	13.2
COc1cc(NCc2ccc3oc(=O)c(-c4ccccc4)nc3c2)cc(OC)c1OC		> 10		> 10		> 10		> 10		> 10		> 10		> 10		> 10		> 10		
O=c1cc(-c2ccccc2)oc2cc(OCCCOc3ccc4c(=O)cc(-c5ccccc5)oc4c3)ccc12		> 100		> 100		> 100		> 100		> 100		> 100		> 100		> 100		> 100		
CCOC(=O)C(=C=C=C(c1ccccc1)c1ccccc1)C(=O)OCC		74.5				32.5		49.1		38.5		36.6		41.5		37.6		36.8		
CCN1c2ccccc2C(C(SC)S(=O)(=O)c2ccc(C)cc2)c2c1[nH]c(=O)n(C)c2=O (centres undefined)		> 100		> 100		> 100		> 100		> 100		> 100				> 100		> 100		
C=C1C(=O)O[C@H]2[C@H]1CC/C(COC(=O)c1c[nH]c3ccccc13)=C\CC[C@@]1(C)O[C@@H]21	1.5	3.3			0.244	0.663	0.258	0.773	0.278	0.789	0.0471	0.312	0.229	0.651	0.445	1.96	0.367	1.41	0.414	0.175
CC1=CC(O)(c2ccc(-c3ccccc3Cl)cc2)OC1=O (centres undefined)		> 100		> 100		> 100		> 100		> 100		> 100		> 100				> 100		
